Test results reported in US20120214802A1, “PYRROLIDINE COMPOUNDS WHICH INHIBIT BETA-SECRETASE ACTIVITY AND METHODS OF USE THEREOF” (priority 2009, published 2012).

Molecular target: memapsin 2 (Homo sapiens, UniProt P56817)
Assay: Inhibition of memapsin 2 beta-secretase activity (fluorogenic substrate FS-2)
Assay type: biochemical
Conditions: pH 4, 37° C., read-out: M2 Ki
Description: Potency of compounds were determined by measurement of their inhibition of memapsin 2 activity toward a fluorescent substrate. Kinetic inhibition experiments were performed using the procedure as described in Ermolieff, et al. (Biochemistry 39:12450-12456 (2000), the teachings of which are incorporated hereby in their entirety). Briefly, assays were performed at pH 4, 37° C., by pre-incubation of memapsin 2 enzyme with compound for 20 minutes. Activity measurements were initiated by addition of a fluorogenic substrate FS-2 (Bachem Americas, Torrance, Calif.) MCA-SEVNLDAEFR-DNP (SEQ ID NO.: 2). The substrate was derived from 10 amino acids of the human amyloid precursor protein (APP), with the Swedish variant amino acids at the beta-secretase cleavage site. The terminal amino acid was modified from arginine to lysine to facilitate derivatization with a functional group for detection by autofluorescence. The amino acid sequence of the “core” peptide of the substrate is SEVNLDAEFK (SEQ ID NO.: 3). The amino terminus was derivatized with (7-methoxycoumarin-4-yl)acetyl (MCA), and the epsilon amine of the lysine side chain of the terminal residue (K in sequence SEVNLDAEFK (SEQ ID NO.: 3)) was derivatized with 2,4-dinitorphenyl (DNP).

Sequence of memapsin 2 (Homo sapiens, UniProt P56817) (P56817 46-501): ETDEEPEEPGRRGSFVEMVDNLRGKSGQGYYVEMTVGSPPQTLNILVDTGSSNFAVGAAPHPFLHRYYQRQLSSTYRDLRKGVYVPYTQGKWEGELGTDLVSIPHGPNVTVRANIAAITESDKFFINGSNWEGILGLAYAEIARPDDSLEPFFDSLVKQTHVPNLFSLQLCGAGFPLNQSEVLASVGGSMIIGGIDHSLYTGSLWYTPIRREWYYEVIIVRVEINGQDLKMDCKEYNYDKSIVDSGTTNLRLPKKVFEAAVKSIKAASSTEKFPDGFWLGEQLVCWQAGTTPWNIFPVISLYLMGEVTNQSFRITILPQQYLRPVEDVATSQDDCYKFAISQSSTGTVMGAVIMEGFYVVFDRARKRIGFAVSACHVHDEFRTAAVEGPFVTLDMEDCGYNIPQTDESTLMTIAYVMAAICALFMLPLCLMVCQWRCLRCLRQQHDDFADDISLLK

Row | SMILES | Ki [µM]
1 | Cc1csc(CN(C)C(=O)c2cccc(C(=O)N[C@@H](Cc3ccccc3)[C@H](O)[C@H]3CCCN3C(=O)OC(C)(C)C)c2)n1 [1-1, (R)-tert-butyl 2-((1S,2S)-1-hydroxy-2-(3-(methyl((4-methylthiazol-2-yl)methyl)carbamoyl)benzamido)-3-phenylpropyl)pyrrolidine-1-carboxylate] | > 0.75
2 | Cc1coc([C@H]2CCCN2C(=O)c2cccc(C(=O)N[C@@H](Cc3ccccc3)[C@H](O)[C@H]3CCCN3)c2)n1 [1-4, N-((1R,2S)-1-hydroxy-3-phenyl-1-((R)-pyrrolidin-2-yl)propan-2-yl)-3-((R)-2-(4-methyloxazol-2-yl)pyrrolidine-1-carbonyl)benzamide] | 0.25 to 0.75
3 | Cc1csc(CN(C)C(=O)c2cccc(C(=O)N[C@@H](Cc3ccccc3)[C@H](O)[C@H]3C[C@H](F)CN3)c2)n1 [1-60, N1-((1R,2S)-1-((2R,4S)-4-fluoropyrrolidin-2-yl)-1-hydroxy-3-phenylpropan-2-yl)-N3-methyl-N3-((4-methylthiazol-2-yl)methyl)isophthalamide] | > 0.75
4 | Cc1csc([C@H]2CCCN2C(=O)c2cc(C(=O)N[C@@H](Cc3cc(F)cc(F)c3)[C@H](O)[C@H]3CCCN3)ccn2)n1 [1-61, N-((1R,2S)-3-(3,5-difluorophenyl)-1-hydroxy-1-((R)-pyrrolidin-2-yl)propan-2-yl)-2-((R)-2-(4-methylthiazol-2-yl)pyrrolidine-1-carbonyl)isonicotinamide] | 0.25 to 0.75
5 | Cc1csc([C@H]2CCCN2C(=O)c2cccc(C(=O)N[C@@H](Cc3ccc(F)cc3)[C@H](O)[C@H]3CCCN3)c2)n1 [1-65, N-((1R,2S)-3-(4-fluorophenyl)-1-hydroxy-1-((R)-pyrrolidin-2-yl)propan-2-yl)-3-((R)-2-(4-methylthiazol-2-yl)pyrrolidine-1-carbonyl)benzamide] | 0.25 to 0.75
6 | Cc1csc(CN(C)C(=O)c2cccc(C(=O)N[C@@H](Cc3ccc(F)cc3)[C@H](O)[C@H]3CCCN3)c2)n1 [1-66, N1-((1R,2S)-3-(4-fluorophenyl)-1-hydroxy-1-((R)-pyrrolidin-2-yl)propan-2-yl)-N3-methyl-N3-((4-methylthiazol-2-yl)methyl)isophthalamide] | > 0.75
7 | Cc1csc([C@H]2CCCN2C(=O)c2cccc(C(=O)N[C@@H](Cc3ccccc3)[C@H](O)[C@H]3CCC(C)(C)N3)c2)n1 [1-67, N-((1R,2S)-1-((R)-5,5-dimethylpyrrolidin-2-yl)-1-hydroxy-3-phenylpropan-2-yl)-3-((R)-2-(4-methylthiazol-2-yl)pyrrolidine-1-carbonyl)benzamide] | > 0.75
8 | Cc1csc([C@H]2CCCN2C(=O)c2cc(C(=O)N[C@@H](Cc3ccccc3)[C@H](O)[C@H]3CCCN3)cc(-n3ccnc3)c2)n1 [1-77, N-((1R,2S)-1-hydroxy-3-phenyl-1-((R)-pyrrolidin-2-yl)propan-2-yl)-3-(1H-imidazol-1-yl)-5-((R)-2-(4-methylthiazol-2-yl)pyrrolidine-1-carbonyl)benzamide] | 0.25 to 0.75
9 | Cc1csc([C@H]2CCCN2C(=O)c2cccc(C(=O)N[C@@H](Cc3ccccc3)[C@@H](O)[C@H]3CCCN3)c2)n1 [1-80, N-((1S,2S)-1-hydroxy-3-phenyl-1-((R)-pyrrolidin-2-yl)propan-2-yl)-3-((R)-2-(4-methylthiazol-2-yl)pyrrolidine-1-carbonyl)benzamide] | > 0.75
10 | CCCN(CCC)C(=O)c1cccc(C(=O)N[C@@H](Cc2ccccc2)[C@H](O)[C@H]2CCCN2)c1 [2-12, N1-((1R,2S)-1-hydroxy-3-phenyl-1-((R)-pyrrolidin-2-yl)propan-2-yl)-N3,N3-dipropylisophthalamide, reference compound] | > 0.75
11 | O=C(N[C@@H](Cc1ccccc1)[C@H](O)[C@H]1CCCN1)c1cccc(CN2CCCC2=O)c1 [2-13, N-((1R,2S)-1-hydroxy-3-phenyl-1-((R)-pyrrolidin-2-yl)propan-2-yl)-3-((2-oxopyrrolidin-1-yl)methyl)benzamide, reference compound] | > 0.75

Further lines, results first:

Row | Ki [µM] | SMILES
12 | 0.25 to 0.75 | Cc1csc(CN(C)C(=O)c2cccc(C(=O)N[C@@H](Cc3ccccc3)[C@H](O)[C@H]3CCCN3)c2)n1 [1-2, N1-((1R,2S)-1-hydroxy-3-phenyl-1-((R)-pyrrolidin-2-yl)propan-2-yl)-N3-methyl-N3-((4-methylthiazol-2-yl)methyl)isophthalamide]
13 | < 0.25 | Cc1csc([C@H]2CCCN2C(=O)c2cc(C(=O)N[C@@H](Cc3ccccc3)[C@H](O)[C@H]3C[C@H](F)CN3)cc(-n3cccc3)c2)n1 [1-59, N-((1R,2S)-1-((2R,4S)-4-fluoropyrrolidin-2-yl)-1-hydroxy-3-phenylpropan-2-yl)-3-((R)-2-(4-methylthiazol-2-yl)pyrrolidine-1-carbonyl)-5-(1H-pyrrol-1-yl)benzamide]
14 | < 0.25 | Cc1csc([C@H]2CCCN2C(=O)c2cc(C(=O)N[C@@H](Cc3cc(F)cc(F)c3)[C@H](O)[C@H]3CCCN3)cc(C3CC3)c2)n1 [1-62, 3-cyclopropyl-N-((1R,2S)-3-(3,5-difluorophenyl)-1-hydroxy-1-((R)-pyrrolidin-2-yl)propan-2-yl)-5-((R)-2-(4-methylthiazol-2-yl)pyrrolidine-1-carbonyl)benzamide]
15 | < 0.25 | Cc1csc([C@H]2CCCN2C(=O)c2cc(C(=O)N[C@@H](Cc3cc(F)cc(F)c3)[C@H](O)[C@H]3CCCN3)cc(-c3cnccn3)c2)n1 [1-63, N-((1R,2S)-3-(3,5-difluorophenyl)-1-hydroxy-1-((R)-pyrrolidin-2-yl)propan-2-yl)-3-((R)-2-(4-methylthiazol-2-yl)pyrrolidine-1-carbonyl)-5-(pyrazin-2-yl)benzamide]
16 | < 0.25 | Cc1csc([C@H]2CCCN2C(=O)c2cc(C(=O)N[C@@H](Cc3ccccc3)[C@H](O)[C@H]3CCCN3)cc(S(C)(=O)=O)c2)n1 [1-68, N-((1R,2S)-1-hydroxy-3-phenyl-1-((R)-pyrrolidin-2-yl)propan-2-yl)-3-(methylsulfonyl)-5-((R)-2-(4-methylthiazol-2-yl)pyrrolidine-1-carbonyl)benzamide]
17 | < 0.25 | Cc1csc([C@H]2CCCN2C(=O)c2cc(C(=O)N[C@@H](Cc3ccccc3)[C@H](O)[C@H]3CCCN3)cc(C(F)(F)F)c2)n1 [1-72, N-((1R,2S)-1-hydroxy-3-phenyl-1-((R)-pyrrolidin-2-yl)propan-2-yl)-3-((R)-2-(4-methylthiazol-2-yl)pyrrolidine-1-carbonyl)-5-(trifluoromethyl)benzamide]
18 | < 0.25 | CO[C@H]1CN[C@@H]([C@@H](O)[C@H](Cc2ccccc2)NC(=O)c2cc(C(=O)N3CCC[C@@H]3c3nc(C)cs3)cc(-c3ncco3)c2)C1 [1-81, N-((1R,2S)-1-hydroxy-1-((2R,4R)-4-methoxypyrrolidin-2-yl)-3-phenylpropan-2-yl)-3-((R)-2-(4-methylthiazol-2-yl)pyrrolidine-1-carbonyl)-5-(oxazol-2-yl)benzamide]
19 | < 0.25 | CO[C@H]1CN[C@@H]([C@H](O)[C@H](Cc2ccccc2)NC(=O)c2cccc(C(=O)N3CCC[C@@H]3c3nc(C)cs3)c2)C1 [1-82, N-((1S,2S)-1-hydroxy-1-((2R,4R)-4-methoxypyrrolidin-2-yl)-3-phenylpropan-2-yl)-3-((R)-2-(4-methylthiazol-2-yl)pyrrolidine-1-carbonyl)benzamide]

Molecular target: T1, memapsin 2 (Cricetulus griseus, UniProt G3IAK4)
T1 construct: endogenous in cells; host or cells: Chinese hamster ovary cells over-expressing human APP695 (London + Swedish)
Assay: Cellular Aβ IC50 determination (Aβ40 sandwich ELISA)
Assay type: cell-based, Chinese hamster
Conditions: CHO cells over-expressing human APP695 with London and Swedish mutations, 24 h, read-out: M2 IC50
Description: The potency of compounds against memapsin 2 activity was determined in a cellular assay of Aβ production. […] Chinese hamster ovary cells that over-express human APP695 with the London and Swedish mutations were seeded in multi-well plates at 10% confluency. Compounds are dissolved in DMSO to concentrations near 1 mM, and diluted into culture media to a final concentration near 4 μM (final 0.4% DMSO). Compounds were diluted serially and applied to cells in multi-well plates 48 h after seeding. Incubation was continued in 5% CO2 at 37° C. for 24 h. Aliquots were removed and assayed for […] using a sandwich ELISA (BioSource International). Amount of Aβ40 over the range of concentration of compounds, relative to control incubations, were fit to a 4-parameter IC50 model.

T1 sequence (G3IAK4 22-501): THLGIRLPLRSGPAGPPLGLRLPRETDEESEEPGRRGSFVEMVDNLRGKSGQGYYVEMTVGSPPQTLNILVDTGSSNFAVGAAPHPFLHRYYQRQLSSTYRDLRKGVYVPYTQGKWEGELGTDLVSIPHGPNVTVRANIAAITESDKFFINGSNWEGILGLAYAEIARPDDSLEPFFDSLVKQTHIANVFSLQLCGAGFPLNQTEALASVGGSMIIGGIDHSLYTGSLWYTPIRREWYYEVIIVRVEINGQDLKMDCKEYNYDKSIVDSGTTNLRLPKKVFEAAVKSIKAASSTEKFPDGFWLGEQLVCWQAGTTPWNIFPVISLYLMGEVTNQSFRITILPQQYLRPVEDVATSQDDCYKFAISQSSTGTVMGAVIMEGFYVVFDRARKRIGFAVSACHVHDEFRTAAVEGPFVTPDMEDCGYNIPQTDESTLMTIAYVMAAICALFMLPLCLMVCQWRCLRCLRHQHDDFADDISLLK

Row | IC50 [µM] | SMILES
20 | > 1 | Cc1csc(CN(C)C(=O)c2cccc(C(=O)N[C@@H](Cc3ccccc3)[C@H](O)[C@H]3CCCN3C(=O)OC(C)(C)C)c2)n1 [1-1, (R)-tert-butyl 2-((1S,2S)-1-hydroxy-2-(3-(methyl((4-methylthiazol-2-yl)methyl)carbamoyl)benzamido)-3-phenylpropyl)pyrrolidine-1-carboxylate]
21 | > 1 | Cc1csc(CN(C)C(=O)c2cccc(C(=O)N[C@@H](Cc3ccccc3)[C@H](O)[C@H]3CCCN3)c2)n1 [1-2, N1-((1R,2S)-1-hydroxy-3-phenyl-1-((R)-pyrrolidin-2-yl)propan-2-yl)-N3-methyl-N3-((4-methylthiazol-2-yl)methyl)isophthalamide]
22 | > 1 | Cc1coc([C@H]2CCCN2C(=O)c2cccc(C(=O)N[C@@H](Cc3ccccc3)[C@H](O)[C@H]3CCCN3)c2)n1 [1-4, N-((1R,2S)-1-hydroxy-3-phenyl-1-((R)-pyrrolidin-2-yl)propan-2-yl)-3-((R)-2-(4-methyloxazol-2-yl)pyrrolidine-1-carbonyl)benzamide]
